# ± gives the expanded uncertainty stated by the source.
# How the values were obtained:
# [1] = Crystal; for mass density: 101.33 kPa, X-ray diffraction
# [2] = molar heat capacity at constant pressure; conditions: 101.33 kPa, Crystal, Small sample (50 mg) DSC
# [3] = molar enthalpy of vaporization or sublimation; conditions: 298.15 K; Crystal; Static calorimetry
# [4] = Molar enthalpy of transition or fusion; conditions: Crystal; DSC
mass density ([1]; 150 K),molar heat capacity at constant pressure ([2]; 298.15 K),molar heat capacity at constant pressure ([2]; 303.15 K),molar heat capacity at constant pressure ([2]; 308.15 K),molar heat capacity at constant pressure ([2]; 313.15 K),molar heat capacity at constant pressure ([2]; 318.15 K),molar heat capacity at constant pressure ([2]; 323.15 K),molar heat capacity at constant pressure ([2]; 328.15 K),molar heat capacity at constant pressure ([2]; 333.15 K),mass density ([1]; 296 K),Triple point temperature ([1]; DSC),molar enthalpy [3],Molar enthalpy of transition or fusion [4],Structure (SMILES)
1489.4 ± 7.3 kg/m3,,,,,,,,,,,,,O.Sc1ncc[nH]1.Sc1ncc[nH]1 [2-mercaptoimidazole hemihydrate]
,112 ± 7.7 J/K/mol,112.4 ± 7.9 J/K/mol,112.9 ± 7.9 J/K/mol,112.6 ± 8.9 J/K/mol,113.4 ± 8.6 J/K/mol,114.3 ± 8.6 J/K/mol,115.3 ± 8.6 J/K/mol,116.5 ± 8.6 J/K/mol,1424.1 ± 7 kg/m3,503.5 ± 0.8 K,114 ± 1.4 kJ/mol,17.5 ± 0.48 kJ/mol,Sc1ncc[nH]1 [2-mercaptoimidazole]

# — the NIST ThermoML archive (doi:10.1016/j.jct.2015.11.010)
